Literature values as cited in US9406119B2, “Estimating pharmacokinetic parameters in imaging” (INVICRO, LLC, priority 2010, dated 2016).

How the values were obtained:
[1] = biological target: T1, αvβ3 (Homo sapiens, UniProt P05106+P06756); conditions: parameter obtained from the literature
[2] = biological target: T1, αvβ3; conditions: parameter obtained from the literature; remark: listed apart in the source
[3] = in vivo

T1 sequence (P06756 31-889 limits assumed): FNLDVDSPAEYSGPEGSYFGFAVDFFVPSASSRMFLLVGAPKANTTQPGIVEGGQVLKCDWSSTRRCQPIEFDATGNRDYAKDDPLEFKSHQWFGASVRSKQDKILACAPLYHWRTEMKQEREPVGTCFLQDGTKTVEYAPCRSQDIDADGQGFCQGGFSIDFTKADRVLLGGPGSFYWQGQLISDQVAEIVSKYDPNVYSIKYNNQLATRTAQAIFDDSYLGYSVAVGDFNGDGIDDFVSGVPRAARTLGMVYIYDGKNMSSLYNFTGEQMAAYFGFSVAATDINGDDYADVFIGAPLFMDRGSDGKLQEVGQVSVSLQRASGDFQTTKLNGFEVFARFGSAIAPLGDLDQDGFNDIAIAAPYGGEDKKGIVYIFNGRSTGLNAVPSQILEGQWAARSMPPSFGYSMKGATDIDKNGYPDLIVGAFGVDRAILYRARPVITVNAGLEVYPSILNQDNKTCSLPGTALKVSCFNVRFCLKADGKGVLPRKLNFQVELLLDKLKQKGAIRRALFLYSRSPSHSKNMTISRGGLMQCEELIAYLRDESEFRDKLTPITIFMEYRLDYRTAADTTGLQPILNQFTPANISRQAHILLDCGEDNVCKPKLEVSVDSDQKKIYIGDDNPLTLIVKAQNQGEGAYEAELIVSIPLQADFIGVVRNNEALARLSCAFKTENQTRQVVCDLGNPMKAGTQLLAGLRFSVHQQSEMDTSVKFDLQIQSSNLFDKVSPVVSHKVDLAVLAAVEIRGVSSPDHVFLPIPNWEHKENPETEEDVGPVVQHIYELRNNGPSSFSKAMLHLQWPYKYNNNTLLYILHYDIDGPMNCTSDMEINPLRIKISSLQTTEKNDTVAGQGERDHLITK
T1 sequence (P06756 891-1048 partner limits assumed): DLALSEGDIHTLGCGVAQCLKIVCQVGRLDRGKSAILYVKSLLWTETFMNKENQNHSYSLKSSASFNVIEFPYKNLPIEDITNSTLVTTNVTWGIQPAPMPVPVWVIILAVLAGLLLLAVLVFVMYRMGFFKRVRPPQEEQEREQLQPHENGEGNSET
T1 sequence (P05106 27-788): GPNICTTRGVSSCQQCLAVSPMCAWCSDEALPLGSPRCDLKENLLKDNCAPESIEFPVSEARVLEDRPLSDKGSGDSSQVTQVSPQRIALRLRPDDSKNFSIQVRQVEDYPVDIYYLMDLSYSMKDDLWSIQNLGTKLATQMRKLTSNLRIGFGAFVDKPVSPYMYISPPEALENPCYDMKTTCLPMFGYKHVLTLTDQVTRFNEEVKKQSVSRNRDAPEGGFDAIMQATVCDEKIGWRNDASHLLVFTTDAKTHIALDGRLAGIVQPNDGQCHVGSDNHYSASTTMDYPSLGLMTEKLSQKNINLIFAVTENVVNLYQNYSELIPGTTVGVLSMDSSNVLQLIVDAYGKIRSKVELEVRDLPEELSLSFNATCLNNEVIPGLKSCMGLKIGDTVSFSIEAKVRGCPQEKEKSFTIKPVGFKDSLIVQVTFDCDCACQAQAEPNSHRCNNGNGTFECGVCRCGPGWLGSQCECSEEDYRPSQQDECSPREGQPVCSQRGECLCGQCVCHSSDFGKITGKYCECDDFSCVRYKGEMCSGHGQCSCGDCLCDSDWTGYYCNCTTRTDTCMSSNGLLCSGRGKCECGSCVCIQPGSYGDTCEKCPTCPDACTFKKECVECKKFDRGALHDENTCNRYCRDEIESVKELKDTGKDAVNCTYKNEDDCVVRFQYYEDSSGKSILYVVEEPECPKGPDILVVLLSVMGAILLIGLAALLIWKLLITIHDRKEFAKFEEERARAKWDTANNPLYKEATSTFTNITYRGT

koff (CA/antigen dissociation rate constant) [1]: 0.0008 s⁻¹ | kon (CA/antigen association rate constant) [1]: 10^5 M^−1s^−1 | Kd ([1]; read-out: KD=koff/kon): 8 nM | ke,B (internalization rate constant of the CA/antigen bound complex) [2]: 1.48e-05 s⁻¹ | kresid (rate of release of CA or CA signal from the intracellular compartment) [2]: 1.6e-05 s⁻¹ | A (fraction of fast phase of plasma clearance) [3]: 0.82 | B (fraction of slow phase of plasma clearance) [3]: 0.18 | α (fast plasma clearance rate constant) [3]: 0.0026 s⁻¹ | β (slow plasma clearance rate constant) [3]: 0.00014 s⁻¹
Substance: ^18F-galacto-RGD [^18F-galacto RGD]
